Data taken from patent EP1027361B1, “6,11-BRIDGED ERYTHROMYCIN DERIVATIVES” (Abbott Laboratories, priority 1997, dated 1999).

How the values were obtained:
Test in all cases: in vitro antibacterial activity, agar dilution MIC
Format in all cases: cell-based
[1] = tested on: Streptococcus agalactiae CMX 508; set-up: unit not given here; conditions: organism code KK, BHI agar, 35-37 °C, 20 to 24 hours
Protocol: (§1) Erythromycin A was used for this purpose.
(§2) After incubation, each plate was visually inspected.

[2] = tested on: Streptococcus pyogenes EES61; set-up: unit not given here; conditions: organism code LL, BHI agar, 35-37 °C, 20 to 24 hours
Protocol: as §1, §2

[3] = tested on: Streptococcus bovis A-5169; set-up: unit not given here; conditions: organism code JJ, BHI agar, 35-37 °C, 20 to 24 hours
Protocol: as §1, §2

[4] = tested on: Streptococcus Pheumoniae ATCC6303; set-up: unit not given here; conditions: organism code XX, BHI agar, 35-37 °C, 20 to 24 hours
Protocol: as §1, §2

[5] = tested on: Staphylococcus aureus ATCC 6538P; set-up: unit not given here; conditions: organism code AA, BHI agar, 35-37 °C, 20 to 24 hours
Protocol: as §1, §2

[6] = tested on: Staphylococcus aureus A-5278; conditions: organism code CC, BHI agar, 35-37 °C, 20 to 24 hours
Protocol: (§3) Representative compounds of the present invention were assayed in vitro for antibacterial activity as follows: Twelve petri dishes containing successive aqueous dilutions of the test compound mixed with 10 mL of sterilized Brain Heart Infusion (BHI) agar (Difco 0418-01-5) were prepared. Each plate was inoculated with 1:100 (or 1:10 for slow-growing strains, such as Micrococcus and Streptococcus) dilutions of up to 32 different microorganisms, using a Steers replicator block. […] In addition, a control plate, using BHI agar containing no test compound, was prepared and incubated at the beginning and end of each test
(§4) An additional plate containing a compound having known susceptibility patterns for the organisms being tested and belonging to the same antibiotic class as the test compound was also prepared and incubated as a further control, as well as to provide test-to-test comparability.
(§5) After incubation, each plate was visually inspected. The minimum inhibitory concentration (MIC) was defined as the lowest concentration of drug yielding no growth, a slight haze, or sparsely isolated colonies on the inoculum spot as compared to the growth control.

[7] = tested on: Streptococcus pyogenes 930; conditions: organism code MM, BHI agar, 35-37 °C, 20 to 24 hours
Protocol: as §3, §4, §5

[8] = tested on: Staphylococcus aureus 1775; conditions: organism code GG, BHI agar, 35-37 °C, 20 to 24 hours
Protocol: as §3, §4, §5

Escherichia coli DC-2 = conditions: organism code SS, BHI agar, 35-37 °C, 20 to 24 hours
Protocol: as §3, §4, §5

[9] = tested on: Streptococcus pyogenes PIU 2548; conditions: organism code NN, BHI agar, 35-37 °C, 20 to 24 hours
Protocol: as §3, §4, §5

Candida albicans CCH 442 = conditions: organism code TT, BHI agar, 35-37 °C, 20 to 24 hours
Protocol: as §3, §4, §5

[10] = tested on: Streptococcus Pheumoniae 5979; conditions: organism code ZZ, BHI agar, 35-37 °C, 20 to 24 hours
Protocol: as §3, §4, §5

[11] = tested on: Staphylococcus aureus A5177; set-up: unit not given here; conditions: organism code BB, BHI agar, 35-37 °C, 20 to 24 hours
Protocol: as §3, §4, §5

[12] = tested on: Mycobacterium smegmatis ATCC 114; set-up: unit not given here; conditions: organism code UU, BHI agar, 35-37 °C, 20 to 24 hours
Protocol: as §3, §4, §5

[13] = tested on: Streptococcus Pheumoniae 5649; conditions: organism code ZZA, BHI agar, 35-37 °C, 20 to 24 hours
Protocol: as §1, §2

[14] = tested on: Streptococcus Pheumoniae GYR 1171; conditions: organism code YY, BHI agar, 35-37 °C, 20 to 24 hours
Protocol: as §1, §2

[15] = tested on: Micrococcus luteus ATCC 9341; conditions: organism code OO, BHI agar, 35-37 °C, 20 to 24 hours
Protocol: as §1, §2

Escherichia coli SS = conditions: organism code RR, BHI agar, 35-37 °C, 20 to 24 hours
Protocol: as §1, §2

[16] = tested on: Staphylococcus aureus CMX 642A; conditions: organism code DD, BHI agar, 35-37 °C, 20 to 24 hours
Protocol: as §1, §2

Escherichia coli JUHL = conditions: organism code QQ, BHI agar, 35-37 °C, 20 to 24 hours
Protocol: as §1, §2

[17] = tested on: Staphylococcus aureus CMX 553; conditions: organism code FF, BHI agar, 35-37 °C, 20 to 24 hours
Protocol: as §1, §2

[18] = tested on: Haemophilis Influenzae DILL AMP R; conditions: organism code WW, BHI agar, 35-37 °C, 20 to 24 hours
Protocol: as §1, §2

[19] = tested on: Nocardia Asteroides ATCC9970; conditions: organism code VV, BHI agar, 35-37 °C, 20 to 24 hours
Protocol: as §1, §2

[20] = tested on: Staphylococcus aureus NCTC10649M; conditions: organism code EE, BHI agar, 35-37 °C, 20 to 24 hours
Protocol: as §1, §2

[21] = tested on: Micrococcus luteus ATCC 4698; conditions: organism code PP, BHI agar, 35-37 °C, 20 to 24 hours
Protocol: as §1, §2

[22] = tested on: Staphylococcus epidermidis 3519; conditions: organism code HH, BHI agar, 35-37 °C, 20 to 24 hours
Protocol: as §1, §2

[23] = tested on: Enterococcus faecium ATCC 8043; conditions: organism code II, BHI agar, 35-37 °C, 20 to 24 hours
Protocol: as §1, §2

Structure (SMILES) | minimum inhibitory concentration (MIC) [1] | minimum inhibitory concentration (MIC) [2] | minimum inhibitory concentration (MIC) [3] | minimum inhibitory concentration (MIC) [4] | minimum inhibitory concentration (MIC) [5] | minimum inhibitory concentration (MIC) [6] | minimum inhibitory concentration (MIC) [7] | minimum inhibitory concentration (MIC) [8] | minimum inhibitory concentration (MIC) (Escherichia coli DC-2) | minimum inhibitory concentration (MIC) [9] | minimum inhibitory concentration (MIC) (Candida albicans CCH 442) | minimum inhibitory concentration (MIC) [10] | minimum inhibitory concentration (MIC) [11] | minimum inhibitory concentration (MIC) [12] | minimum inhibitory concentration (MIC) [13] | minimum inhibitory concentration (MIC) [14] | minimum inhibitory concentration (MIC) [15] | minimum inhibitory concentration (MIC) (Escherichia coli SS) | minimum inhibitory concentration (MIC) [16] | minimum inhibitory concentration (MIC) (Escherichia coli JUHL) | also measured
CC[C@H]1OC(=O)[C@H](C)C(=O)[C@H](C)[C@@H](O[C@@H]2O[C@H](C)C[C@H](N(C)C)[C@H]2O)[C@@]2(C)C[C@@H](C)C(=O)[C@H](C)[C@H]3N(CCC=CCO2)C(=O)O[C@]13C [Example 18, Compound of Formula (II), R^p is H, m is 2, A is absent, B is absent, D is absent, E is-(CH2)r-CH=CH-, r is 0, n is 1] | 0.2 | 0.2 | 0.2 | 1 | 0.78 | >100 | >100 | >100 | >100 | 1.56 | >100 | >128 | 0.78 | 12.5 | 2 | 0.5 | 0.39 | 1.56 | 0.78 | >100 | minimum inhibitory concentration (MIC) [17]: 0.78; minimum inhibitory concentration (MIC) [18]: 128; minimum inhibitory concentration (MIC) [19]: 0.78; minimum inhibitory concentration (MIC) [20]: 0.78; minimum inhibitory concentration (MIC) [21]: 0.78; minimum inhibitory concentration (MIC) [22]: 1.56; minimum inhibitory concentration (MIC) [23]: 0.39
CC[C@H]1OC(=O)[C@H](C)C(=O)[C@H](C)[C@@H](O[C@@H]2O[C@H](C)C[C@H](N(C)C)[C@H]2O)[C@@]2(C)C[C@@H](C)C(=O)[C@H](C)[C@H]3N(CC=CCO2)C(=O)O[C@]13C [Example 16, Compound of Formula (II), R^p is H, m is 1, A is absent, B is absent, D is absent, E is-(CH2)r-CH=CH-, r is 0, n is 1] | 0.2 | 0.2 | 0.2 | 0.25 | 0.39 | >100 | >100 | >100 | >100 | 0.39 | >100 | >128 | 0.39 | 6.2 | 0.5 | 0.25 | 0.2 | 0.78 | 0.39 | >100 | minimum inhibitory concentration (MIC) [17]: 0.39; minimum inhibitory concentration (MIC) [18]: 32; minimum inhibitory concentration (MIC) [19]: 0.39; minimum inhibitory concentration (MIC) [20]: 0.39; minimum inhibitory concentration (MIC) [21]: 0.39; minimum inhibitory concentration (MIC) [22]: 0.39; minimum inhibitory concentration (MIC) [23]: 0.2
CC[C@H]1OC(=O)[C@H](C)[C@@H](O[C@H]2C[C@@](C)(OC)[C@@H](O)[C@H](C)O2)[C@H](C)[C@@H](O[C@@H]2O[C@H](C)C[C@H](N(C)C)[C@H]2O)[C@@]2(C)C[C@@H](C)C(=O)[C@H](C)[C@H]3N(CC(O)CC=CCO2)C(=O)O[C@]13C (stereo partly drawn) [Example 19, Compound of Formula (I), R^p is H, m is 1, A is absent, B is -CHOH-(CH2)q-, q is 1, D is absent, E is -(CH2)r-CH=CH-, r is 0, n is 1] | 0.05 | 0.05 | 0.02 | 0.03 | 0.39 | >100 | >100 | >100 | >100 | 12.5 | >100 | >128 | 3.1 | 0.39 | 16 | 0.03 | 0.05 | 0.78 | 0.78 | 25 | minimum inhibitory concentration (MIC) [17]: 0.78; minimum inhibitory concentration (MIC) [18]: 8; minimum inhibitory concentration (MIC) [19]: 0.05; minimum inhibitory concentration (MIC) [20]: 0.78; minimum inhibitory concentration (MIC) [21]: 0.78; minimum inhibitory concentration (MIC) [22]: 0.78; minimum inhibitory concentration (MIC) [23]: 0.1
